Holding throughout (test): inhibition of tumour cell growth, NCI panel, 48 h
Test [1] relates to HT29 colon.
Test [2] concerns OVCAR-8 ovarian.
Test [3] concerns SF-268 CNS.
The test system of test [4] is RPMI-8226 leukemia.
In test [5] the test system is SK-MEL-5 melanoma.
Test [6] deals with COLO 205 colon.
In test [7] the test system is HCT-15 colon.
In test [8] the test system is A498 renal.
Test [9] relates to SK-OV-3 ovarian.
Test [10] has as its system SF-295 CNS.

Where “and” joins values, the source holds several entries; their conditions need not be identical. Equal entries are not always repeated.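 Briefly, cells in 96-well plates were exposed to five compound concentrations for 48 h, and endpoints were estimated by linear interpolation. TGI marks complete inhibition of growth.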 Where a SMILES comes first, the peptide text is derived from it. [ ]: non-standard residue; d: D form. The star is where a group is joined. Cbz = O=C(OCc1ccccc1)*; Boc = CC(C)(C)OC(=O)*; Aib = CC(C)(N)C(=O)O; OBn = c1ccc(CO*)cc1; OtBu = CC(C)(C)O*; βAla = NCCC(=O)O A value given as a limit tells only on which side of the number the result lay.

Take `O=c1[nH]nc(Cc2ccc(Cl)cc2)n1O`: the TGI in test [1], in [2], in [3], in [4], in test [5] and in [6] was above 100 µM in each case. The TGI in test [7], in test [8], in [9] and in test [10] was above 100 µM each time.

Take `COc1ccc(-c2c(C#N)c(-c3ccccc3)n(NS(=O)(=O)c3ccccc3)c(=O)c2C#N)cc1`: the TGI is above 100 µM in test [1]; above 100 µM in test [2]; above 100 µM in test [3]; 68.8 µM in [4]; above 100 µM in test [5]; above 100 µM in test [6]. The TGI in test [7], in test [8], in test [9] and in [10] was above 100 µM each time.

As to `CCOP(=O)(OCC)C(Nc1ccc(F)cc1)c1cccc([N+](=O)[O-])c1` (stereo not given), the TGI in test [1], in test [2], in [3], in [4], in test [5] and in test [6] was above 100 µM each time. For the same compound, the TGI in [7], in test [8], in test [9] and in test [10] was above 100 µM throughout.

On to `CC#CC(O)(C(=O)OC1CCCN(C)C1)C1=CC=CCC1` (stereo not given), for which the TGI in [1], in [2], in test [3], in [4], in [5] and in test [6] was above 100 µM in each case. Moreover, the TGI in test [7], in test [8], in test [9] and in test [10] was above 100 µM in each case.

Turning to `CCOC(=O)C1=C(C)NC(=S)NC1c1cccc(O)c1` (stereo not given), the TGI was above 100 µM in [1]; above 100 µM in test [2]; above 100 µM in [3]; above 97 µM in [4]; above 100 µM in test [5]; above 82.3 µM in test [6]. Also, the TGI in test [7] is above 100 µM; in [8], 87.6 µM; in [9], above 100 µM; in [10], 93.6 µM.

Regarding `CC[N+](C)(CC)CCN1C(=O)c2ccccc2S1(=O)=O`, the TGI in [1], in [2], in [3], in [4], in [5] and in test [6] was above 100 µM in each case. In addition, the TGI in [7], in test [8], in test [9] and in test [10] was above 100 µM in each case.

As for `CSC(=NC1=NC(C(F)(F)F)(C(F)(F)F)N=C(c2ccccc2)O1)SC`, the TGI in test [1] was 61 µM; in [2], above 100 µM; in test [3], above 100 µM; in test [5], 33.1 µM; in test [6], 46.5 µM; in [7] it was 33.5 µM. Besides, the TGI in test [8] was 51.6 µM; in test [9], above 100 µM; in test [10], above 100 µM.

Regarding `CN(C(=O)c1ccc(Cl)s1)C(=S)N(C)C(=O)c1ccc(Cl)s1`, the TGI in [1], in test [2], in test [3], in test [4], in test [5] and in test [6] was above 10 µM throughout. In addition, the TGI in test [7], in test [8], in test [9] and in [10] was above 10 µM throughout.

As to `O=C(/C=C/c1ccc([N+](=O)[O-])cc1)c1nc2ccccc2[nH]1`, the TGI in [1] was above 100 µM; in test [2], above 100 µM; in test [3] it was above 100 µM; in [4] it was 33.3 µM; in test [5], above 100 µM; in test [6], above 100 µM. Further, the TGI is above 100 µM in test [7], 3.99 µM in test [8], above 100 µM in test [9] and above 100 µM in [10].

`CCCCN(c1ccccc1)c1ncnc2c1cnn2C`: the TGI in test [1] was above 100 µM; in test [2] it was above 100 µM; in test [3], above 100 µM; in test [4] it was 48 µM; in test [5], above 100 µM; in [6], above 100 µM. Further, the TGI in test [7] was above 100 µM; in test [8], 71.1 µM; in test [9], above 100 µM; in [10], above 100 µM.

In the case of `O=C1c2ccccc2CC12Cc1ccc3c(c1C2)CCC3` (stereo not given), the TGI in [1] was 29.2 µM; in [2], above 100 µM; in test [3], above 100 µM; in test [4] it was 59.6 µM; in test [5], 28.8 µM; in test [6], 59.3 µM. Also, the TGI in test [7] was 31.6 µM; in test [8] it was above 100 µM; in test [9], above 100 µM; in test [10] it was 76.5 µM.

Turning to `Cc1ccc2c(c1)OC1Nc3ccccc3C1=C2O` (stereo not given), the TGI in test [1] is above 100 µM; in test [2], above 100 µM; in test [3] it was above 100 µM; in test [4], above 100 µM; in test [5] it was 34 µM; in test [6], 29.2 µM. For the same compound, the TGI is above 100 µM in [7], 45.5 µM in [8], 64.3 µM in test [9] and 60 µM in [10].

On to `CSC1SCC2C(=O)N(C)C3(CC3C)C(=O)OCC(NC(=O)c3nc4ccccc4cc3O)C(=O)NC(C)C(=O)N(C)C1C(=O)N(C)C1(CC1C)C(=O)OCC(NC(=O)c1nc3ccccc3cc1O)C(=O)NC(C)C(=O)N2C` (stereo not given), for which the TGI is 4.21 µM in test [1]; 0.00684 µM and 0.0159 µM in test [3]; below 0.0001 µM in [4]; below 0.0001 µM in [6]; below 0.0001 µM in [8]; 17.2 µM in [9].

As for `CC(C)(C)OC(=O)CC(NC(=O)OC(C)(C)C)C(=O)NC(CCCCNC(=O)OCc1ccccc1)C(=O)NC(C)(C)C(=O)NCCC(=O)OCc1ccccc1` (stereo not given) (Boc-D(OtBu)K(Cbz)[Aib][βAla]-OBn; configuration not given here), the TGI in test [1], in test [2], in test [3], in [4], in test [5] and in test [6] was above 100 µM each time. For the same compound, the TGI in test [7], in [8], in test [9] and in test [10] was above 100 µM throughout.

For `COc1cc(C2C3=C(COC3=O)OC(C)(C)Oc3cc4c(cc32)OCO4)cc(OC)c1OC` (stereo not given), the TGI in test [1] was 0.662 µM; in [2], above 100 µM; in test [3], above 31.6 µM; in test [4] it was above 87.3 µM; in test [5] it was 2.33 µM; in [6], 0.552 µM. Further, the TGI is 1.49 µM in [8], above 100 µM in [9] and 0.532 µM in [10].

`N#Cc1c2c(c(N3CCOCC3)n3c1nc1ccccc13)CCCC2`: the TGI in test [1] was 38.6 µM; in test [2] it was 43.4 µM; in test [3] it was above 100 µM; in test [5] it was 37 µM; in test [6], 37.5 µM; in [7], 36.2 µM. Besides, the figures for the TGI in test [8], in [9] and in [10] were 34.5 µM, 67.7 µM and 34.8 µM, respectively.

Regarding `O=C1[C@@H]2Cc3c([nH]c4ccccc34)C(C3CCCCC3)N2C(=O)[C@@H]2CCCN12` (stereo not given in full), the TGI in [1] was 73.4 µM; in [2], above 100 µM; in test [3], above 100 µM; in test [4], 51 µM; in test [5], 35.7 µM; in test [6], 42.9 µM. In addition, the TGI in [7] was above 100 µM; in [8], above 100 µM; in test [9], above 100 µM; in [10], 61.1 µM.

For `O=C(Nc1cccc(-c2cn3ccccc3n2)c1)c1ccncc1`, the TGI in test [1] is above 100 µM; in [2] it was above 100 µM; in test [3] it was above 100 µM; in [4], 39.7 µM; in test [5] it was 71.4 µM; in [6], 88.8 µM. The TGI in test [7], in test [8], in [9] and in test [10] was above 100 µM each time.

`Cc1ccc(S(=O)(=O)N2CCN(CCN(C)CCN3CCN(S(=O)(=O)c4ccc(C)cc4)CC3)CC2)cc1`: the TGI in [1] is 29.9 µM; in [2], 32.7 µM; in test [3], 40.1 µM; in test [4], 37 µM; in test [5], 32.3 µM; in [6], 38.9 µM. Further, the TGI in test [7] worked out at 31.9 µM; in [8], 31.8 µM; in test [9], 33.3 µM; in test [10], 31.9 µM.

Regarding `CCN(CC)CCCNc1ccc2nnn3c4ccc(O)cc4c(=O)c1c23`, the TGI in test [1] worked out at 14.1 µM; in [2], 12.9 µM; in [3], 18.6 µM; in [4], 32.2 µM; in test [5] it was 22.6 µM; in test [6], 19.5 µM. In addition, the TGI in test [7] amounted to 19.4 µM; in test [8], 24.3 µM; in test [9], 22.1 µM; in [10], 22.8 µM.

For `Cc1[nH]c(-c2ccccc2)c(-c2ccc(Cl)cc2)c1C(=O)ONC(=O)c1ccccc1`, the TGI was 22.9 µM in test [1]; 17 µM in test [2]; 6.9 µM in [3]; above 48.4 µM in test [4]; 14.1 µM in test [5]; 22.9 µM in [6]. Moreover, the TGI in test [7] worked out at 21.6 µM; in test [8], 18.4 µM; in [9], 32.4 µM; in test [10], 4.74 µM.

Turning to `O=C(NCCNCCO)N/N=C/c1ccc(Cl)cc1`, the TGI in [1], in test [2], in [3], in test [5], in [6] and in test [7] was above 100 µM each time. In addition, the TGI in [8], in [9] and in test [10] was above 100 µM in each case.

For the compound `O=C(c1ccco1)N(C(=S)OCc1ccccn1)c1ccccc1`, the TGI in test [1], in [2], in [3], in [4], in [5] and in [6] was above 100 µM in each case. The TGI in test [7], in test [8] and in test [9] was above 100 µM in each case.

Take `COC(OC)C(O)C1OC=CC1n1cnc2c(N)ncnc21` (stereo not given): the TGI in [1], in test [3], in test [4], in test [5], in test [6] and in test [7] was above 100 µM each time. In addition, the TGI in test [8], in test [9] and in [10] was above 100 µM each time.

Consider `COc1cc2ccnc3c2c(c1O)N(C)C=C3`, for which the TGI in test [2] is above 46.8 µM; in test [3], 36.6 µM; in [4] it was above 100 µM; in test [5], 32.5 µM; in test [6], above 63.1 µM; in [7] it was above 64.2 µM. Besides, the figures for the TGI in test [8], in test [9] and in [10] were 23.4 µM, 27.4 µM and 28.6 µM, respectively.

As for `COC(=O)C1(C(=O)OC)N=C(C)OC1C(C)C` (stereo not given), the TGI in test [2], in test [4], in [5], in [6], in test [7] and in [8] was above 100 µM in each case. Also, the TGI in [9] and in test [10] was above 100 µM each time.

Turning to `CN1CC(c2ccccc2)N(CCCCN2CC(c3ccccc3)N(C)CC2c2ccccc2)CC1c1ccccc1` (stereo not given), the TGI in [1], in [2], in [3], in test [5], in test [6] and in [7] was above 100 µM each time. The TGI in [8], in [9] and in test [10] was above 100 µM each time.

For the compound `O=C1OS2(OCc3cccc4cccc2c34)c2ccccc21` (stereo not given), the TGI in test [1], in test [3], in test [4], in test [5], in test [6] and in test [7] was above 100 µM throughout. Also, the TGI in [8], in test [9] and in [10] was above 100 µM in each case.

The values above are taken from PubChem BioAssay (NCI).
